| melting point | Structure (SMILES) |
| --- | --- |
| 146 to 148 °C | CO/N=C(C)/C(=N/N=C/c1ccccc1-n1c(OC)nn(C)c1=O)C1CC1 |
| 157 to 161 °C | CON=C(C(C)=NN=Cc1ccccc1-n1c(OC)nn(C)c1=O)c1cccc(C(F)(F)F)c1 |
